Data taken from patent publication US20070020744A1, “Enzyme compositions that enhance the flavor of food and beverages” (Amano Enzyme USA Co., Ltd, priority 2005, published 2007).

Columns and labels:
Protease M = test: Relative activity on nitrophenyl-sugar substrates: Protease M; type: biochemical, Aspergillus oryzae; conditions: 100 units arbitrarily chosen for the substrate on which Protease M exhibited the most activity
Description: (§1) The relative activity of Protease M and β-glycosidase on different sugar substrates was assessed. A panel of substrates comprising a nitrophenyl group conjugated to different sugars was used in the study.

β-glycosidase = test: Relative activity on nitrophenyl-sugar substrates: β-glycosidase; type: biochemical, Penicillium multicolor; conditions: 100 units arbitrarily chosen for the substrate on which β-glycosidase exhibited the most activity
Description: as §1

Row | SMILES | relative activity of Protease M for the substrate (Protease M) | relative activity of β-glycosidase for the substrate (β-glycosidase)
1 | O=[N+]([O-])c1ccc(O[C@@H]2O[C@H](CO)[C@@H](O)[C@H](O)[C@@H]2O)cc1 [4-Nitrophenyl β-D-mannopyranoside] | 10 activity units | 12 activity units
2 | O=[N+]([O-])c1ccc(O[C@H]2O[C@H](CO)[C@H](O)[C@H](O)[C@H]2O)cc1 [4-Nitrophenyl α-D-galactopyranoside] | 6 activity units | 100 activity units
3 | O=[N+]([O-])c1ccc(O[C@@H]2O[C@H](CO)[C@H](O)[C@H](O)[C@H]2O)cc1 [4-Nitrophenyl β-D-galactopyranoside] | 100 activity units | 85 activity units
4 | O=[N+]([O-])c1ccc(O[C@@H]2O[C@H](CO)[C@@H](O[C@H]3O[C@H](CO)[C@@H](O)[C@H](O)[C@H]3O)[C@H](O)[C@H]2O)cc1 [4-Nitrophenyl β-D-maltoside] | 63 activity units | 57 activity units
5 | O=[N+]([O-])c1ccc(O[C@H]2O[C@H](CO)[C@@H](O)[C@H](O)[C@H]2O)cc1 [4-Nitrophenyl α-D-glucopyranoside] | 42 activity units | 19 activity units
6 | O=[N+]([O-])c1ccc(O[C@@H]2O[C@H](CO)[C@@H](O[C@@H]3O[C@H](CO)[C@@H](O)[C@H](O)[C@H]3O)[C@H](O)[C@H]2O)cc1 [4-Nitrophenyl β-D-cellobioside] | 68 activity units | 55 activity units
7 | O=C(O)[C@H]1O[C@@H](Oc2ccc([N+](=O)[O-])cc2)[C@H](O)[C@@H](O)[C@@H]1O [4-Nitrophenyl β-D-glucuronide] | 4 activity units | 12 activity units
8 | O=[N+]([O-])c1ccc(O[C@@H]2OC[C@H](O)[C@H](O)[C@H]2O)cc1 [4-Nitrophenyl α-L-arabinopyranoside] | 29 activity units | 60 activity units
9 | O=[N+]([O-])c1ccc(O[C@H]2O[C@H](CO)[C@@H](O)[C@H](O)[C@@H]2O)cc1 [4-Nitrophenyl α-D-mannopyranoside] | 4 activity units | 19 activity units
